The results in this text go back to paper PMC3590912 (Journal of medicinal chemistry, 2012).

Series [1] in a line: In vitro metabolic stability in hepatic microsomes with NADPH. The settings on record: for in vitro metabolic stability (in words): hepatic microsomes with NADPH, compared with 1.
A further series deals with mice. Description: Urearetic activity: urine osmolality in mice under dDAVP stimulation. It is filed as in vivo, mouse. The settings on record: 400 μg intraperitoneal, dDAVP 1 h later, versus formulation alone.
A short description of series [2]: Pharmacokinetics and renal accumulation in mice. Particulars: intraperitoneal bolus 400 μg, for many hours.

For `O=S(=O)(c1ccc(C(F)(F)F)cc1)c1nnn2c1nc(NCc1cccs1)c1sccc12` [3c, Thiophen-2-ylmethyl-[3-(4-trifluoromethylbenzenesulfonyl)thieno[2,3-e][1,2,3]triazolo[1,5-a]pyrimidin-5-yl]amine], in series [1], the “in vitro metabolic stability (in words)” value is given as “improved metabolic stability”.
Regarding `O=S(=O)(c1ccc(OC(F)(F)F)cc1)c1nnn2c1nc(NCc1cccs1)c1sccc12` [3d, Thiophen-2-ylmethyl-[3-(4-trifluoromethoxybenzenesulfonyl)thieno[2,3-e][1,2,3]triazolo-[1,5-a]pyrimidin-5-yl]amine], in series [1], the “in vitro metabolic stability (in words)” value is reported as “improved metabolic stability”.
Regarding `O=S(=O)(c1ccc(Br)cc1)c1nnn2c1nc(NCc1cccs1)c1sccc12` [3i, [3-(4-Bromobenzenesulfonyl)thieno[2,3-e][1,2,3]triazolo-[1,5-a]pyrimidin-5-yl]thiophen-2-ylmethylamine], the “in vitro metabolic stability (in words)” value in series [1] is given as “improved metabolic stability”.
`CC(F)(F)c1ccc(S(=O)(=O)c2nnn3c2nc(NCc2cccs2)c2sccc23)cc1` [3k, [3-[4-(1,1-Difluoroethyl)benzenesulfonyl]thieno[2,3-e]-[1,2,3]triazolo[1,5-a]pyrimidin-5-yl]thiophen-2-ylmethylamine]: in the series on mice, the “reduction of urine osmolality” value is ~ 0.5 Osm/kg H2O. Moreover, the “improvement of in vitro metabolic stability compared to 1” value in series [1] is given as ~ 40 fold. Also, the “3k concentration in blood, kidney and urine” value in series [2] is > 1 µM.
